# Measured values: the supplement of paper PMC10307832
# Key:
# Experiment in all cases: relative viability (nuclei count vs DMSO), 5 days (fraction); higher = more cells survive
# [1] = compound: COc1cc2nc(N3CCCN(C)CC3)nc(NC3CCN(Cc4ccccc4)CC3)c2cc1OC + N=C(N)NC(=N)NCCc1ccccc1 [Phenformin] (partner 250 µM)
# How it was run: (§1)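 Five library-drug doses in √10 steps were combined with a fixed anchor-drug dose, or a single drug was given alone, by pin tool to lung cancer cell lines in 1536-well plates the day after seeding. Nuclei were stained and counted after 5 days. Relative viability is the nuclei count in treated wells over that in vehicle wells, taken as the median of duplicate plates.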
# AZD6482 + Lapatinib = compound: Cc1cc([C@@H](C)Nc2ccccc2C(=O)O)c2nc(N3CCOCC3)cc(=O)n2c1 [AZD6482] + CS(=O)(=O)CCNCc1ccc(-c2ccc3ncnc(Nc4ccc(OCc5cccc(F)c5)c(Cl)c4)c3c2)o1 [Lapatinib] (partner 2 µM)
# How it was run: as §1
# [2] = compound: COc1cc2nc(N3CCCN(C)CC3)nc(NC3CCN(Cc4ccccc4)CC3)c2cc1OC + O=C(CCCCCCC(=O)Nc1ccccc1)NO [Vorinostat] (partner 1 µM)
# How it was run: as §1
# AZD6482 + Vorinostat = compound: Cc1cc([C@@H](C)Nc2ccccc2C(=O)O)c2nc(N3CCOCC3)cc(=O)n2c1 [AZD6482] + O=C(CCCCCCC(=O)Nc1ccccc1)NO [Vorinostat] (partner 1 µM)
# How it was run: as §1
cell line,measurement,setting,value
NCI-H1975,relative viability,[1]; first compound 0.2 µM,0.414
same,relative viability,[1]; first compound 0.6325 µM,0.431
same,relative viability,[1]; first compound 2 µM,0.411
same,relative viability,[1]; first compound 6.325 µM,0.389
same,relative viability,AZD6482 + Lapatinib; first compound 0.08 µM,0.727
same,relative viability,AZD6482 + Lapatinib; first compound 0.253 µM,0.802
same,relative viability,AZD6482 + Lapatinib; first compound 0.8 µM,0.814
same,relative viability,AZD6482 + Lapatinib; first compound 2.53 µM,0.626
same,relative viability,AZD6482 + Lapatinib; first compound 8 µM,0.581
same,relative viability,[2]; first compound 0.2 µM,0.397
same,relative viability,[2]; first compound 0.6325 µM,0.677
same,relative viability,[2]; first compound 2 µM,0.797
same,relative viability,[2]; first compound 6.325 µM,0.654
same,relative viability,AZD6482 + Vorinostat; first compound 0.08 µM,0.638
same,relative viability,AZD6482 + Vorinostat; first compound 0.253 µM,0.655
same,relative viability,AZD6482 + Vorinostat; first compound 0.8 µM,0.743
same,relative viability,AZD6482 + Vorinostat; first compound 2.53 µM,0.535
same,relative viability,AZD6482 + Vorinostat; first compound 8 µM,0.482
CAL-12T,relative viability,[1]; first compound 0.2 µM,0.503
same,relative viability,[1]; first compound 0.6325 µM,0.606
same,relative viability,[1]; first compound 2 µM,0.686
same,relative viability,[1]; first compound 6.325 µM,0.532
same,relative viability,AZD6482 + Lapatinib; first compound 0.08 µM,0.601
same,relative viability,AZD6482 + Lapatinib; first compound 0.8 µM,0.529
same,relative viability,AZD6482 + Lapatinib; first compound 2.53 µM,0.272
same,relative viability,AZD6482 + Lapatinib; first compound 8 µM,0.578
same,relative viability,[2]; first compound 0.2 µM,0.558
same,relative viability,[2]; first compound 0.6325 µM,0.626
same,relative viability,[2]; first compound 2 µM,0.925
same,relative viability,[2]; first compound 6.325 µM,0.767
same,relative viability,AZD6482 + Vorinostat; first compound 0.08 µM,0.715
same,relative viability,AZD6482 + Vorinostat; first compound 0.253 µM,0.666
same,relative viability,AZD6482 + Vorinostat; first compound 0.8 µM,0.737
same,relative viability,AZD6482 + Vorinostat; first compound 2.53 µM,0.548
same,relative viability,AZD6482 + Vorinostat; first compound 8 µM,0.556
NCI-H1623,relative viability,[1]; first compound 0.2 µM,0.62
same,relative viability,[1]; first compound 0.6325 µM,0.621
same,relative viability,[1]; first compound 2 µM,0.522
same,relative viability,[1]; first compound 6.325 µM,0.569
HCC-44,relative viability,[1]; first compound 0.2 µM,0.252
same,relative viability,[1]; first compound 0.6325 µM,0.376
same,relative viability,[1]; first compound 2 µM,0.339
same,relative viability,[1]; first compound 6.325 µM,0.27
same,relative viability,AZD6482 + Lapatinib; first compound 0.08 µM,0.909
same,relative viability,AZD6482 + Lapatinib; first compound 0.253 µM,1.06
same,relative viability,AZD6482 + Lapatinib; first compound 0.8 µM,1.13
same,relative viability,AZD6482 + Lapatinib; first compound 2.53 µM,1.1
same,relative viability,AZD6482 + Lapatinib; first compound 8 µM,0.882
same,relative viability,[2]; first compound 0.2 µM,1.11
same,relative viability,[2]; first compound 0.6325 µM,1.12
same,relative viability,[2]; first compound 2 µM,1.17
same,relative viability,[2]; first compound 6.325 µM,1.12
same,relative viability,AZD6482 + Vorinostat; first compound 0.08 µM,1.08
same,relative viability,AZD6482 + Vorinostat; first compound 0.253 µM,1.17
same,relative viability,AZD6482 + Vorinostat; first compound 0.8 µM,1.28
same,relative viability,AZD6482 + Vorinostat; first compound 2.53 µM,1.29
same,relative viability,AZD6482 + Vorinostat; first compound 8 µM,1.21
EKVX,relative viability,[1]; first compound 0.2 µM,0.233
same,relative viability,[1]; first compound 0.6325 µM,0.235
same,relative viability,[1]; first compound 2 µM,0.233
same,relative viability,[1]; first compound 6.325 µM,0.24
same,relative viability,AZD6482 + Lapatinib; first compound 0.08 µM,0.173
same,relative viability,AZD6482 + Lapatinib; first compound 0.253 µM,0.342
same,relative viability,AZD6482 + Lapatinib; first compound 0.8 µM,0.181
same,relative viability,AZD6482 + Lapatinib; first compound 2.53 µM,0.141
same,relative viability,AZD6482 + Lapatinib; first compound 8 µM,0.167
same,relative viability,[2]; first compound 0.2 µM,0.703
same,relative viability,[2]; first compound 0.6325 µM,0.721
same,relative viability,[2]; first compound 2 µM,0.541
same,relative viability,[2]; first compound 6.325 µM,0.722
same,relative viability,AZD6482 + Vorinostat; first compound 0.08 µM,0.537
same,relative viability,AZD6482 + Vorinostat; first compound 0.253 µM,0.662
same,relative viability,AZD6482 + Vorinostat; first compound 0.8 µM,0.578
same,relative viability,AZD6482 + Vorinostat; first compound 2.53 µM,0.485
same,relative viability,AZD6482 + Vorinostat; first compound 8 µM,0.361
NCI-H1651,relative viability,[1]; first compound 0.2 µM,0.351
same,relative viability,[1]; first compound 0.6325 µM,0.33
same,relative viability,[1]; first compound 2 µM,0.329
same,relative viability,[1]; first compound 6.325 µM,0.318
same,relative viability,AZD6482 + Lapatinib; first compound 0.08 µM,0.776
same,relative viability,AZD6482 + Lapatinib; first compound 0.253 µM,0.608
same,relative viability,AZD6482 + Lapatinib; first compound 0.8 µM,0.77
same,relative viability,AZD6482 + Lapatinib; first compound 2.53 µM,0.563
same,relative viability,AZD6482 + Lapatinib; first compound 8 µM,0.522
same,relative viability,[2]; first compound 0.2 µM,0.56
same,relative viability,[2]; first compound 0.6325 µM,0.617
same,relative viability,[2]; first compound 2 µM,0.561
same,relative viability,[2]; first compound 6.325 µM,0.548
same,relative viability,AZD6482 + Vorinostat; first compound 0.08 µM,0.602
same,relative viability,AZD6482 + Vorinostat; first compound 0.253 µM,0.502
same,relative viability,AZD6482 + Vorinostat; first compound 0.8 µM,0.56
same,relative viability,AZD6482 + Vorinostat; first compound 2.53 µM,0.464
same,relative viability,AZD6482 + Vorinostat; first compound 8 µM,0.524
NCI-H1944,relative viability,[1]; first compound 0.2 µM,0.21
same,relative viability,[1]; first compound 0.6325 µM,0.221
same,relative viability,[1]; first compound 2 µM,0.201
same,relative viability,[1]; first compound 6.325 µM,0.203
same,relative viability,AZD6482 + Lapatinib; first compound 0.08 µM,0.85
same,relative viability,AZD6482 + Lapatinib; first compound 0.253 µM,0.863
same,relative viability,AZD6482 + Lapatinib; first compound 0.8 µM,0.926
same,relative viability,AZD6482 + Lapatinib; first compound 2.53 µM,0.527
same,relative viability,AZD6482 + Lapatinib; first compound 8 µM,0.564
same,relative viability,[2]; first compound 0.2 µM,0.58
same,relative viability,[2]; first compound 0.6325 µM,0.597
same,relative viability,[2]; first compound 2 µM,0.512
same,relative viability,[2]; first compound 6.325 µM,0.517
same,relative viability,AZD6482 + Vorinostat; first compound 0.08 µM,0.544
same,relative viability,AZD6482 + Vorinostat; first compound 0.253 µM,0.498
same,relative viability,AZD6482 + Vorinostat; first compound 0.8 µM,0.609
same,relative viability,AZD6482 + Vorinostat; first compound 2.53 µM,0.43
same,relative viability,AZD6482 + Vorinostat; first compound 8 µM,0.469
NCI-H1703,relative viability,AZD6482 + Lapatinib; first compound 0.08 µM,1.11
same,relative viability,AZD6482 + Lapatinib; first compound 0.253 µM,0.871
same,relative viability,AZD6482 + Lapatinib; first compound 0.8 µM,0.654
same,relative viability,AZD6482 + Lapatinib; first compound 2.53 µM,0.448
same,relative viability,AZD6482 + Lapatinib; first compound 8 µM,0.484
Calu-6,relative viability,AZD6482 + Lapatinib; first compound 0.08 µM,1.05
same,relative viability,AZD6482 + Lapatinib; first compound 0.253 µM,1.07
same,relative viability,AZD6482 + Lapatinib; first compound 0.8 µM,1.14
same,relative viability,AZD6482 + Lapatinib; first compound 2.53 µM,0.879
same,relative viability,AZD6482 + Lapatinib; first compound 8 µM,0.953
EBC-1,relative viability,AZD6482 + Lapatinib; first compound 0.08 µM,0.184
same,relative viability,AZD6482 + Lapatinib; first compound 0.253 µM,0.196
same,relative viability,AZD6482 + Lapatinib; first compound 0.8 µM,0.211
same,relative viability,AZD6482 + Lapatinib; first compound 2.53 µM,0.218
same,relative viability,AZD6482 + Lapatinib; first compound 8 µM,0.216
SW 1573,relative viability,[1]; first compound 0.2 µM,0.373
same,relative viability,[1]; first compound 0.6325 µM,0.424
same,relative viability,[1]; first compound 2 µM,0.369
same,relative viability,[1]; first compound 6.325 µM,0.163
same,relative viability,AZD6482 + Lapatinib; first compound 0.08 µM,1.15
same,relative viability,AZD6482 + Lapatinib; first compound 0.253 µM,1.13
same,relative viability,AZD6482 + Lapatinib; first compound 0.8 µM,1.02
same,relative viability,AZD6482 + Lapatinib; first compound 2.53 µM,0.771
same,relative viability,AZD6482 + Lapatinib; first compound 8 µM,0.759
same,relative viability,[2]; first compound 0.2 µM,0.704
same,relative viability,[2]; first compound 0.6325 µM,0.574
same,relative viability,[2]; first compound 2 µM,0.684
same,relative viability,[2]; first compound 6.325 µM,0.199
same,relative viability,AZD6482 + Vorinostat; first compound 0.08 µM,0.766
same,relative viability,AZD6482 + Vorinostat; first compound 0.253 µM,0.681
same,relative viability,AZD6482 + Vorinostat; first compound 0.8 µM,0.654
same,relative viability,AZD6482 + Vorinostat; first compound 2.53 µM,0.58
same,relative viability,AZD6482 + Vorinostat; first compound 8 µM,0.48
A-427,relative viability,[1]; first compound 0.2 µM,0.337
same,relative viability,[1]; first compound 0.6325 µM,0.422
same,relative viability,[1]; first compound 2 µM,0.305
same,relative viability,[1]; first compound 6.325 µM,0.247
same,relative viability,AZD6482 + Lapatinib; first compound 0.08 µM,0.97
same,relative viability,AZD6482 + Lapatinib; first compound 0.253 µM,0.869
same,relative viability,AZD6482 + Lapatinib; first compound 0.8 µM,1.08
same,relative viability,AZD6482 + Lapatinib; first compound 2.53 µM,0.777
same,relative viability,AZD6482 + Lapatinib; first compound 8 µM,1.1
same,relative viability,[2]; first compound 0.2 µM,0.865
same,relative viability,[2]; first compound 0.6325 µM,0.827
same,relative viability,[2]; first compound 2 µM,0.882
same,relative viability,[2]; first compound 6.325 µM,0.851
same,relative viability,AZD6482 + Vorinostat; first compound 0.08 µM,0.806
same,relative viability,AZD6482 + Vorinostat; first compound 0.253 µM,0.843
same,relative viability,AZD6482 + Vorinostat; first compound 0.8 µM,0.87
same,relative viability,AZD6482 + Vorinostat; first compound 2.53 µM,0.706
same,relative viability,AZD6482 + Vorinostat; first compound 8 µM,0.826
